Reference: US8987248B2, “Substituted piperidines as Par-1 antagonists” (Bayer Intellectual Property GmbH, priority 2009, dated 2015)
Where a name gives a salt, the structure may show the parent alone.

Molecular target: human protease activated receptor 1 (PAR-1) (Homo sapiens (Human), UniProt P25116)
Assay: Cellular, functional in vitro test (aequorin luminescence, calcium release in recombinant HEK293 PAR-1 test cell)
Assay type: cell-based
Settings: HEK293-derived PAR-1 test cell line expressing aequorin; PAR-1 agonist added at its EC50, 5 min after test substance
Excerpt: 1.a) Cellular, Functional In Vitro Test
A recombinant cell line is used to identify […] of the human protease activated receptor 1 (PAR-1) and to quantify the activity of the substances described herein. The cell is originally derived from a human embryonal kidney cell (HEK293; ATCC: American Type Culture Collection, Manassas, Va. 20108, USA). The test cell line constitutively expresses a modified form of the calcium-sensitive photoprotein aequorin which, after reconstitution with the cofactor coelenterazine, emits light when the free calcium concentration in the inner mitochondrial compartment is increased (Rizzuto R, Simpson A W, Brini M, Pozzan T.; Nature 1992, 358, 325-327). Additionally, the cell stably expresses the endogenous human PAR-1 receptor and the endogenous purinergic receptor P2Y2. The resulting PAR-1 test cell responds to stimulation of the endogenous PAR-1 or P2Y2 receptor with an intracellular release of calcium ions, which can be quantified through resulting aequorin luminescence with a suitable luminometer (Milligan G, Marshall F, Rees S, Trends in Pharmacological Sciences 1996, 17, 235-237).
For the testing of the substance specificity, the effect thereof after activation of the endogenous PAR-1 receptor is compared with the effect after activation of the endogenous purinergic P2Y2 receptor which utilizes the same intracellular signal path.
Two days (48 hours) before the assay, the cells are plated out in culture medium (DMEM F12, supplemented with 10% FCS, 2 mM glutamine, 10 mM HEPES, 1.4 mM pyruvate, 0.1 mg/ml gentamycin, 0.15% Na bicarbonate; BioWhittaker Cat. #BE04-687Q; B-4800 Verviers, Belgium) in 384-well microtitre plates and kept in a cell incubator (96% humidity, 5% v/v CO2, 37° C.). On the day of the test, the culture medium is replaced by a tyrode solution (in mM: 140 sodium chloride, 5 potassium chloride, 1 magnesium chloride, 2 calcium chloride, 20 glucose, 20 HEPES), which additionally contains the cofactor coelenterazine (25 μM) and glutathione (4 mM), and the microtitre plate is then incubated for a further 3-4 hours. The test substances are then pipetted onto the microtitre plate, and 5 minutes after the transfer of the test substances into the wells of the microtitre plate the plate is transferred into the luminometer, a PAR-1 agonist concentration which corresponds to the EC50 is added and the resulting light signal is immediately measured in the luminometer. To distinguish an antagonist substance action from a toxic action, the endogenous purinergic receptor is immediately subsequently activated with agonist (ATP, final concentration 10 μM) and the resulting light signal is measured.

Chain of human protease activated receptor 1 (PAR-1) (P25116 22-425): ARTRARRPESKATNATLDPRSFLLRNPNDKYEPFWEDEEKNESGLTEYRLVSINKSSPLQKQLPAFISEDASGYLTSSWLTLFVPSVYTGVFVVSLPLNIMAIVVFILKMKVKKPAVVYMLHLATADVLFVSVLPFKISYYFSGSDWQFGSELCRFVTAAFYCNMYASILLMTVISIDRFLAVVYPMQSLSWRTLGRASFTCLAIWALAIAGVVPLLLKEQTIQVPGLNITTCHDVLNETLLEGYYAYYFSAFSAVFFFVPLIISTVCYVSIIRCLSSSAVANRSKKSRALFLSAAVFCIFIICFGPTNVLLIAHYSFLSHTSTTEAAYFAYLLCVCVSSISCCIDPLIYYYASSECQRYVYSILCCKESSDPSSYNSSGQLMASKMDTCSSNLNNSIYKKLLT

Row | Compound | IC50 [nM]
1 | CCc1ccc(C2CC(NC(=O)C(C)(C)C)CN(C(=O)C3CCCC3)C2)cc1 (racemic) [Example 90, N-[1-(Cyclopentylcarbonyl)-5-(4-ethylphenyl)piperidin-3-yl]-2,2-dimethylpropanamide] | 359
2 | N#CC1CCN(C(=O)N2CC(NC(=O)C3CCCC3)CC(c3ccc(C(F)(F)F)cc3)C2)CC1 (single isomer, unassigned) [Example 178, N-{1-[(4-Cyanopiperidin-1-yl)carbonyl]-5-[4-(trifluoromethyl)phenyl]piperidin-3-yl}cyclopentanecarboxamide] | 63
3 | CCc1ccc(C2CC(NC(=O)OC)CN(C(=O)N3CCOCC3)C2)cc1 (racemic) [Example 102, Methyl [5-(4-ethylphenyl)-1-(morpholin-4-ylcarbonyl)piperidin-3-yl]carbamate] | 165
4 | CCc1ccc(C2CC(C(=O)Nc3ccccc3)CN(C(=O)C3(CC)COC3)C2)cc1 (racemic) [Example 18] | 483
5 | CCc1ccc(C2CC(C(=O)Nc3ccccc3)CN(C(=O)CCOC)C2)cc1 (racemic) [Example 8, 5-(4-Ethylphenyl)-1-(3-methoxypropanoyl)-N-phenylpiperidine-3-carboxamide] | 109
6 | CCc1ccc(C2CC(NC(=O)N(C)c3ccccc3)CN(C(=O)C3CCCC3)C2)cc1 (racemic) [Example 95, 3-[1-(Cyclopentylcarbonyl)-5-(4-ethylphenyl)piperidin-3-yl]-1-methyl-1-phenylurea] | 237
7 | CCc1ccc(C2CC(C(=O)Nc3ccccc3)CN(C(=O)c3scnc3C)C2)cc1 (racemic) [Example 36] | 98.2
8 | O=C1CN(C(=O)N2CC(NC(=O)c3ccccc3)CC(c3ccc(C(F)(F)F)cc3)C2)CCN1 (racemic) [Example 141, N-{1-[(3-Oxopiperazin-1-yl)carbonyl]-5-[4-(trifluoromethyl)phenyl]piperidin-3-yl}benzenecarboxamide] | 53.7
9 | CCc1ccc(C2CC(NS(=O)(=O)Cc3ccccc3)CN(C(=O)C3CCCC3)C2)cc1 (racemic) [Example 104, N-[1-(Cyclopentylcarbonyl)-5-(4-ethylphenyl)piperidin-3-yl]-1-phenylmethanesulphonamide] | 248
10 | O=C(NC1CC(c2ccc(C(F)(F)F)cc2)CN(C(=O)N2CCC(O)CC2)C1)c1ccccc1 (racemic) [Example 129, N-{1-[(4-Hydroxypiperidin-1-yl)carbonyl]-5-[4-(trifluoromethyl)phenyl]piperidin-3-yl}benzenecarboxamide] | 33.6
11 | O=C(NC1CC(c2ccc(C(F)(F)F)cc2)CN(C(=O)N2CCC(O)CC2)C1)C1CCCC1 (single isomer, unassigned) [Example 177, N-{1-[(4-Hydroxypiperidin-1-yl)carbonyl]-5-[4-(trifluoromethyl)phenyl]piperidin-3-yl}cyclopentanecarboxamide] | 81

Compounds with a lower IC50, results first:

Row | IC50 [nM] | Compound
12 | 14.6 | C[C@@H]1CC[C@@H](C)N1C(=O)N1CC(NC(=O)c2ccccc2)CC(c2ccc(C(F)(F)F)cc2)C1 (mixture of isomers) [Example 133, N-(1-{[(2R,5R)-2,5-Dimethylpyrrolidin-1-yl]carbonyl}-5-[4-(trifluoromethyl)phenyl]piperidin-3-yl)benzenecarboxamide]
13 | 11.1 | O=C(NC1CC(c2ccc(OC(F)(F)F)cc2)CN(C(=O)c2ccncc2)C1)c1ccccc1 (single isomer, unassigned) [Example 115, N-{1-(Pyridin-4-ylcarbonyl)-5-[4-(trifluoromethoxy)phenyl]piperidin-3-yl}benzenecarboxamide]
14 | 15.4 | O=C(NC1CC(c2ccc(C(F)(F)F)cc2)CN(C(=O)N2CCS(=O)(=O)CC2)C1)c1ccccc1 (racemic) [Example 134, N-{1-[(1,1-Dioxidothiomorpholin-4-yl)carbonyl]-5-[4-(trifluoromethyl)phenyl]piperidin-3-yl}-benzenecarboxamide]
15 | 25 | Cc1cccc(C(=O)NC2CC(c3ccc(C(F)(F)F)cc3)CN(C(=O)N3CCOCC3)C2)n1 (racemic) [Example 162]
16 | 29 | CCc1ccc(C2CC(C(=O)Nc3ccccc3)CN(C(=O)C(C)(C)CF)C2)cc1 (racemic) [Example 7, 5-(4-Ethylphenyl)-1-(3-fluoro-2,2-dimethylpropanoyl)-N-phenylpiperidine-3-carboxamide]
17 | 15.7 | Cc1ccc(C2CC(NC(=O)c3ccccc3)CN(C(=O)C3(N)CCC3)C2)cc1C (racemic) [Example 119, N-{1-[(1-Aminocyclobutyl)carbonyl]-5-(3,4-dimethylphenyl)piperidin-3-yl}benzenecarboxamide hydrochloride]
18 | 21.3 | O=C(NC1CC(c2ccc(C(F)(F)F)cc2)CN(C(=O)N2CCC(O)CC2)C1)C1CCCC1 (racemic) [Example 170, N-{1-[(4-Hydroxypiperidin-1-yl)carbonyl]-5-[4-(trifluoromethyl)phenyl]piperidin-3-yl}cyclopentanecarboxamide]
19 | 17 | O=C(NC1CC(c2ccc(C(F)(F)F)cc2)CN(C(=O)N2CCOCC2)C1)c1ccccc1 (single isomer, unassigned) [Example 128, N-{1-(Morpholin-4-ylcarbonyl)-5-[4-(trifluoromethyl)phenyl]piperidin-3-yl}benzenecarboxamide]
20 | 17.4 | CCc1ccc(C2CC(NC(=O)Nc3ccccc3)CN(C(=O)N3CCCC3)C2)cc1 (racemic) [Example 91, N-[5-(4-Ethylphenyl)-1-(pyrrolidin-1-ylcarbonyl)piperidin-3-yl]-3-phenylurea]
21 | 19.7 | CCc1ccc(C2CC(NC(=O)c3ccc(-c4cccc(C(F)(F)F)c4)cn3)CN(C(=O)C3CCCC3)C2)cc1 (racemic) [Example 83, N-[1-(Cyclopentylcarbonyl)-5-(4-ethylphenyl)piperidin-3-yl]-5-[3-(trifluoromethyl)phenyl]pyridine-2-carboxamide]
